One assay deals with 5-HT1B receptor (Homo sapiens, UniProt P28222). The experiment in a line: 5-HT1B receptor functional assay (cAMP assay, inverse agonist). It is filed as cell-based. As to conditions: inverse agonist activity, CHO-K1/5-HT1B cells, read-out: 5HT1BR, EC50.
The target in another assay is T1, 5-HT2C receptor (Homo sapiens, UniProt P28335).
T1 sequence (P28335 33-458): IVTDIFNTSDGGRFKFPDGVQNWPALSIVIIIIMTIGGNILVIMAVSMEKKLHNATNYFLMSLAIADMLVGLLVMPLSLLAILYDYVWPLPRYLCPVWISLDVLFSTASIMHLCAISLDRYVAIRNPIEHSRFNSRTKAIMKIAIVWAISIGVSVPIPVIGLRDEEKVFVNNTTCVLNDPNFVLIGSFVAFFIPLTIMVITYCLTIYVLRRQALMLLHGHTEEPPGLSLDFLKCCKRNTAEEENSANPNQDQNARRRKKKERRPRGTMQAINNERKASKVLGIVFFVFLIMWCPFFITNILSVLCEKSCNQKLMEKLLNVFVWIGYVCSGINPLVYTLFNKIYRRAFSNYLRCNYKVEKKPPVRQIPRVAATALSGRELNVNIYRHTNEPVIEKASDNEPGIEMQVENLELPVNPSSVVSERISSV
The experiment in a line: 5-HT2C receptor functional assay (calcium flow, FLIPR). The class given is cell-based. The note with it: HEK293/5-HT2C cells, read-out: 5HT2cR, IC50.

Assay [1] deals with male ICR mice. Briefly: APO-induced climbing in mice.
The test system of another assay is male Wistar rats. The experiment in a line: Conditioned avoidance response test in rats. It is filed as in vivo. As to conditions: Rattus norvegicus, single oral dose, read-out: ED50, inhibition of conditioned avoidance response. From the text: Shuttle-box Avoidance Test Video Analysis System (DigBehv-SBG, Shanghai Jiliang Software Technology Co. Ltd.) were used to assess the rats conditioned avoidance response.
Phase I: The rats responded to the conditioned stimulus (auditory and visual) by training with foot shock reinforcement. Briefly, rats were placed into the CAR shuttle boxes for a 5-min habituation followed by 30 trials presented on a 20-s variable interval (20–30 s) stimulus. Each rats were subjected to a conditioned stimulus which consisted of 10s presentation of light and white noise, and then followed by a scrambled 1.5 mA foot shock for 10 s. […] Rats with avoidance rates greater than 70% for 3 consecutive days were included in this study post-training.
Phase II: The qualified rats were randomly divided into 7 groups. […] The procedure in the testing phase was the same as the Phase I described. The number of avoidances, escapes, and escape failures were recorded.

Assay [2] relates to male ICR mice. Briefly: Forced swimming test in mice. The class given is in vivo. The note with it: single oral dose; NH300094 0.03 mg/kg; risperidone 0.01, 0.03 and 0.1 mg/kg. The protocol: Each mouse was required to swim in an open cylindrical container (height of 25 cm, diameter of 10 cm) after intragastric administration of compounds 1 h. The container contained 1.2 L of water with temperature maintained at 24°C ± 1°C. The test used a computerized analysis and tracking system (Clever Sys Inc., Leesburg, VA) to recorded the duration of immobility (last 4 min of a total time of 6 min) about the testing mice.

In assay [3] the test system is male ICR mice. The experiment in a line: DOI-induced head twitch in mice.
Assay [4] concerns male ICR mice. Briefly: MK-801-induced hyperactivity in mice. As to conditions: single oral dose. The class given is in vivo. The protocol: Immediately after injection with either saline or MK-801 (0.3 mg/kg, i.p.), the mice were placed into the test chambers (29 cm × 29 cm × 30 cm) for 60 min of locomotion recording using a tracking and computerized analysis system (TopScan Version 3.00, Clever Sys Inc., Leesburg, VA).

The test system of assay [5] is male ICR mice. The experiment in a line: Novel object recognition in scopolamine hydrobromide-treated mice. As to conditions: NOR; NH300094 0.01–0.16 mg/kg p.o.; risperidone 0.04, 0.08, 0.16 mg/kg p.o.; rivastigmine 0.3 and 1 mg/kg i.p. It is filed as in vivo. As to the method: The procedure was modified according to Bevins and Besheer ([Bevins and Besheer, 2006]). […] The tests were conducted in a 50 cm × 35 cm × 20 cm chamber and the mice behavior was recording using a Hikvision video recording system (H.265, Hikvision Digtial Technology Co., Ltd.). All mice were allowed to freely explore the chamber environment for 10 min, and there were no objects placed in the chamber during acclimatization period. […] Rivastigmine hydrogen tartrate group (0.1, 0.3 and 1 mg/kg, i.p.) were dosed simultaneously with scopolamine hydrobromide (3 mg/kg, i.p.). Training was conducted 30 min post scopolamine hydrobromide administration by placing a single mouse into a chamber for 10 min with two exactly same objects positioned in the center of chamber. (The distance between the two objects was more than 20 cm). […]
The experimental video was analyzed to record the time of mice exploring the new and old objects, respectively, and the differentiation index (DI) was calculated as follows: DI = new object exploration time/(new object exploration time + old object exploration time), which was used as the main evaluation index of discrimination ability. […] If the total exploration time of the new and old objects was less than 20 s, the total 10 min of video would be analyzed. […] The movement of circling without sniffing or sitting on the object was not recorded as exploration behavior.

[6] abbreviates: single oral dose, male ICR mice.

Each structure is given as a SMILES string. Structures can show the parent of a compound that is named as a salt.

5-HT1B receptor, sequence (P28222 whole entry): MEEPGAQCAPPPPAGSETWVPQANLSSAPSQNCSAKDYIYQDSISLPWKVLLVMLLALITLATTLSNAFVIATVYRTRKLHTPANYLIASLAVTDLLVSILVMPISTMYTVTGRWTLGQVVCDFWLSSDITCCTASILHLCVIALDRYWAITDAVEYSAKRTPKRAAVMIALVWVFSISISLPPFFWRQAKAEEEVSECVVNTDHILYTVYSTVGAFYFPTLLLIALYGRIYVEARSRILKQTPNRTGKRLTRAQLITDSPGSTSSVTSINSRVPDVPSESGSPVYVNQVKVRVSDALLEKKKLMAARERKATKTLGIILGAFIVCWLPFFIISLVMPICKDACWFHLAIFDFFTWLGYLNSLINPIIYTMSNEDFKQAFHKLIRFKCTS

Turning to `CSc1ccc2c(c1)C(N1CCN(C)CC1)Cc1ccccc1S2` (centres unmarked) [Methiothepin, reference compound], the EC50 on 5-HT1B receptor was found to be 22.3 ± 9.69 nM. Moreover, the IC50 at 5-HT2C receptor turned out to be 39.7 nM.

In the case of `Cc1nc2n(c(=O)c1CCN1CCC(c3noc4cc(F)ccc34)CC1)CCCC2` [Risperidone, risperidone, reference compound], the ED50 with male ICR mice [1] (Mus musculus, read-out: ED50, inhibition of APO-induced climbing) is about 0.1 mg/kg; in the assay on male Wistar rats, about 0.7 mg/kg; with male ICR mice [3] (Mus musculus, po, read-out: ED50, inhibition of DOI-induced head twitch, single oral dose, male ICR mice, DOI 1 mg/kg) it was about 0.002 mg/kg; in the assay on male ICR mice [4] (Mus musculus, MK-801 0.3 mg/kg i.p., read-out: ED50, inhibition of MK-801-induced hyperactivity), about 0.08 mg/kg. For the same molecule, the “MED, APO-induced climbing” value in the assay with male ICR mice [1] (setting [6]) was found to be 0.1 mg/kg. Further, the “effect on immobility time in the FST” value with male ICR mice [2] is “did not affect the immobility time”. In addition, the “MED, DOI-induced head twitch” value in the assay on male ICR mice [3] (setting [6]) is on record as 0.001 mg/kg. In the assay with male ICR mice [4], the “Minimum effective dose (MED), MK-801-induced hyperactivity” value turned out to be 0.1 mg/kg.

On to `CCN(C)C(=O)Oc1cccc([C@H](C)N(C)C)c1` [rivastigmine bitartrate, rivastigmine hydrogen tartrate, reference compound], for which the “effect on differentiation index (DI) of scopolamine hydrobromide-treated mice” value with male ICR mice [5] is “significantly enhanced learning and memory ability”.

For orientation: EC50 means the concentration at which the effect is half-maximal. For orientation: IC50 means the concentration needed to halve the response being measured.

The values are drawn from publication PMC10848157, “Assessing NH300094, a novel dopamine and serotonin receptor modulator with cognitive enhancement property for treating schizophrenia” (Frontiers in Pharmacology, 2024).
